Patent US20090042818A1, “Liquiritigenin and Derivatives as Selective Estrogen Receptor Beta Agonists” (BIONOVO, INC., priority 2007, published 2009)
“Also recorded” adds a separate entry of the source.

Experiments:
[1] = tested on: MCF-7 breast cancer cells; assay: MCF-7 xenograft under kidney capsule of nude mice, tumor growth; assay type: in vivo; conditions: 30 days; for tumor growth of MCF-7 grafts: subcutaneous osmotic pump, E2 0.4 mg, liquiritigenin 2 mg
Protocol: (§1) MCF-7 (250,000) cells were aggregated in suspension and then resuspended in 200 μL neutralized collagen, as previously described (Parmar et al., Endocrinology 143:4886-4896 (2002). The cells were then grafted under the kidney capsule of nude mice as described and illustrated in detail at: http://mammary.nih.gov/tools/mousework/Cunha001/index.html. Five mice per group were treated with a continuous infusion using osmotic pumps (Alzet, Cupertino, Calif.) containing vehicle, E2 (0.4 mg) or liquiritigenin (2 mg) that infused 2.5 μl/h for 1 month. After one month of treatment, the tumors and uteri were removed and analyzed. These animal studies were carried out with approval from the University of California, San Francisco Committee on Animal Research. The major concern with estrogens for menopausal symptoms is the proliferation of breast and endometrial cells causing an increased risk for breast and uterine cancer. To determine if liquiritigenin has a proliferative effect on breast cancer and endometrial cells, MCF-7 breast cancer cells were grafted under the kidney capsule of nude mice. Using a subcutaneous osmotic pump designed to deliver a steady dose of drug, the mice were treated for 30 days with vehicle, E2, or liquiritigenin.

ERα and ERβ = conditions: cited from earlier work
[2] = tested on: mammary and uterine tissue; conditions: rat, in vivo; cited from earlier work
uterus = assay: MCF-7 xenograft study in nude mice, uterine horn mass; assay type: in vivo; conditions: osmotic pump, 30 days, E2 0.4 mg, liquiritigenin 2 mg
Protocol: as §1

ERα [3] = target: T1, ERα (Homo sapiens, UniProt P03372); assay: Real-time PCR of native target gene mRNA in U2OS-ERα cells; assay type: cell-based; parameters: expressed in transfected cells; conditions: 1 μM
T1 sequence (P03372 1-595): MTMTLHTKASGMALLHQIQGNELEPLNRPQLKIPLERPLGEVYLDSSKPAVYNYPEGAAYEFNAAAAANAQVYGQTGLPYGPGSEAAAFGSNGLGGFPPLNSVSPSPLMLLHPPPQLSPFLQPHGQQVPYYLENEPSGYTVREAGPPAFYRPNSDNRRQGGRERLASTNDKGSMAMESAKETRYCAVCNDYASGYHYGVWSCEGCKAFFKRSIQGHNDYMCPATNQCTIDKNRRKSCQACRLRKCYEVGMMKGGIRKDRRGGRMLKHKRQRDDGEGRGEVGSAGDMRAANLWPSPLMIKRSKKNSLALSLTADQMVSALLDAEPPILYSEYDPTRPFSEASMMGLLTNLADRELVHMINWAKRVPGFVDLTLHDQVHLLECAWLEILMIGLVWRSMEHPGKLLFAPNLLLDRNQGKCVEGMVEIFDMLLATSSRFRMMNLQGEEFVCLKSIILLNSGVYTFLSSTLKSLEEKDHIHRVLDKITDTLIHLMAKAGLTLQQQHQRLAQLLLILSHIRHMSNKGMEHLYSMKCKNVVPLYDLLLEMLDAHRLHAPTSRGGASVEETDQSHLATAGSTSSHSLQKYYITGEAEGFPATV

ERα [4] = target: T1, ERα; assay: Native ER regulatory element (CECR6, NKG2E, NKD) tk-Luc transfection assay with ERα; assay type: cell-based; parameters: expressed in transfected cells; host or cells: U2OS
Description: In addition to the traditional ERE, it is important to determine if liquiritigenin selectivity activates ERβ in elements derived from native ER target genes. ER regulatory elements from the cat eye syndrome chromosome region candidate 6 (CECR6), killer cell lectin-like receptor (NKG2E) and the naked cuticule homolog (NKD) genes that are activated by E2 Levy et al., Endocrinology doi:10.1210/en.2006-1632 (2007)) were used. CECR6-tk-Luc (A), NKG2E-tk-Luc (B), and NKD-tk-Luc (C) were transfected into U2OS cells with expression vectors for human ERα or ERβ. […] Liquiritigenin produced a dose-dependent activation of CECR6, NKG2E, and NKD with ERβ but not with ERα (FIGS. 4A, 4B, 4C, respectively). The cells were then treated for increasing times with liquiritigenin.

androgen receptor (AR) = target: T2, androgen receptor (AR) (Homo sapiens, UniProt P10275); assay: TAT3-luciferase transfection assay with androgen receptor in U2OS cells; conditions: 2.5 μM, 18 h
T2 sequence (P10275 1-920): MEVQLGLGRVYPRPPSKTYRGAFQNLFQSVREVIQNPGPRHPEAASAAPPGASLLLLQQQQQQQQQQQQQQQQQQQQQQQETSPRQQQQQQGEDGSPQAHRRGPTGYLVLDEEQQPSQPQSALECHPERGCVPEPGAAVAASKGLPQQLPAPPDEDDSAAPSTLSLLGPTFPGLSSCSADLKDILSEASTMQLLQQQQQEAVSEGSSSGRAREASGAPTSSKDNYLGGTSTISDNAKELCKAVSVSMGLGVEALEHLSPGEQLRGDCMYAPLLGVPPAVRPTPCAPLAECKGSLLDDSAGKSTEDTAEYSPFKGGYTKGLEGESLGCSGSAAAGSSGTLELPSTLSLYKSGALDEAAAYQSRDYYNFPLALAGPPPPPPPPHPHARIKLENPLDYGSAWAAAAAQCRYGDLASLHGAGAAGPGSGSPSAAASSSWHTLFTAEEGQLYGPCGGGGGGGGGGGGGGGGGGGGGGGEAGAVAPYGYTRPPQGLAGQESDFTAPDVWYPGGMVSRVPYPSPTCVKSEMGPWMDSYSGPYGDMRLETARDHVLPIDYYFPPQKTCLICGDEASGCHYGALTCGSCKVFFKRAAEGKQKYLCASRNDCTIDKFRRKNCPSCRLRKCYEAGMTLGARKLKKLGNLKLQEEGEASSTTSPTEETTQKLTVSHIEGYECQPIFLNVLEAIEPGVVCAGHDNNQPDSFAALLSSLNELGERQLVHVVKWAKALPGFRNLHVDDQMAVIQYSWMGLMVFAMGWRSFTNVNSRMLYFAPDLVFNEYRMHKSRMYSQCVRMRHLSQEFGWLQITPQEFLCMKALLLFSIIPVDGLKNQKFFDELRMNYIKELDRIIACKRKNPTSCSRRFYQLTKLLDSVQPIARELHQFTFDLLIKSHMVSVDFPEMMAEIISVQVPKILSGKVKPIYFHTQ

[5] = target: T3, thyroid hormone receptor β1 (TR) (Homo sapiens, UniProt P10828); assay: F2-tkLuc transfection assay with thyroid hormone receptor β1 in U2OS cells; conditions: 2.5 μM, 18 h
T3 sequence (P10828 1-461): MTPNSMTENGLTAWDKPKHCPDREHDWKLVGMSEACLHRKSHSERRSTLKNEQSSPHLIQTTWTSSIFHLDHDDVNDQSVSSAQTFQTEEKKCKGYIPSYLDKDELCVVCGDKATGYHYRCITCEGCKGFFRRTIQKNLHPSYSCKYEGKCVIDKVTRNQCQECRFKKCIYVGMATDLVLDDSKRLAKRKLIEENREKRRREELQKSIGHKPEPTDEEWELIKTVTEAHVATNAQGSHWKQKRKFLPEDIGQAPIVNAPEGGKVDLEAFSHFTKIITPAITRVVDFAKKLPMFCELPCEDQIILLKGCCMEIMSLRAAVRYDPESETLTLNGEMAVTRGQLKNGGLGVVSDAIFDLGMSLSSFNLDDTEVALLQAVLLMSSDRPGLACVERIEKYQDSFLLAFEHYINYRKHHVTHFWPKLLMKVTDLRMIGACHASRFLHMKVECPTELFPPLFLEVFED

[6] = target: T4, glucocorticoid receptor (GR) (Homo sapiens, UniProt P04150); assay: MMTV-luciferase transfection assay with glucocorticoid receptor in U2OS cells; conditions: 2.5 μM, 18 h
T4 sequence (P04150 1-777): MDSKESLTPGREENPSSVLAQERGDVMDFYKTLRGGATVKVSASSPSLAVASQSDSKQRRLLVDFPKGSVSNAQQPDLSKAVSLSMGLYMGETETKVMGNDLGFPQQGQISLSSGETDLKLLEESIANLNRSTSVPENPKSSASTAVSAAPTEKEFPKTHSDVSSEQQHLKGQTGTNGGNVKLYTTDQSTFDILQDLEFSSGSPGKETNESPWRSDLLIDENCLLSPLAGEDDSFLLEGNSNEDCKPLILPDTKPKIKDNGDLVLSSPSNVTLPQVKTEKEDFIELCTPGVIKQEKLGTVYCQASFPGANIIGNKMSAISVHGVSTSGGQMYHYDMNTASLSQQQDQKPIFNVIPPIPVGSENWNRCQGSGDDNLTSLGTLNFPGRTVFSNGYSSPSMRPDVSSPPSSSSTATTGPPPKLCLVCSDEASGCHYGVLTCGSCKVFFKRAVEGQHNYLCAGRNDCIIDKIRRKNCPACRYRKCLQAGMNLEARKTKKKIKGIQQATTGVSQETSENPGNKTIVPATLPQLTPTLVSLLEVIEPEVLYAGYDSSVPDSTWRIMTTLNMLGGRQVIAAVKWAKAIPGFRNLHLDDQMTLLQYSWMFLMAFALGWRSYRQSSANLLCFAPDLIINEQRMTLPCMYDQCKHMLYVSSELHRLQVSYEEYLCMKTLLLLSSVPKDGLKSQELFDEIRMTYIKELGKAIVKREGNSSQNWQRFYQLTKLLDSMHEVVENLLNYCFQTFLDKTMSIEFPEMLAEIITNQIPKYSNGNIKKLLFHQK

[7] = target: T5, progesterone receptor B (PR) (Homo sapiens, UniProt P06401); assay: TAT3-luciferase transfection assay with progesterone receptor B in U2OS cells; conditions: 2.5 μM, 18 h
T5 sequence (P06401 1-933): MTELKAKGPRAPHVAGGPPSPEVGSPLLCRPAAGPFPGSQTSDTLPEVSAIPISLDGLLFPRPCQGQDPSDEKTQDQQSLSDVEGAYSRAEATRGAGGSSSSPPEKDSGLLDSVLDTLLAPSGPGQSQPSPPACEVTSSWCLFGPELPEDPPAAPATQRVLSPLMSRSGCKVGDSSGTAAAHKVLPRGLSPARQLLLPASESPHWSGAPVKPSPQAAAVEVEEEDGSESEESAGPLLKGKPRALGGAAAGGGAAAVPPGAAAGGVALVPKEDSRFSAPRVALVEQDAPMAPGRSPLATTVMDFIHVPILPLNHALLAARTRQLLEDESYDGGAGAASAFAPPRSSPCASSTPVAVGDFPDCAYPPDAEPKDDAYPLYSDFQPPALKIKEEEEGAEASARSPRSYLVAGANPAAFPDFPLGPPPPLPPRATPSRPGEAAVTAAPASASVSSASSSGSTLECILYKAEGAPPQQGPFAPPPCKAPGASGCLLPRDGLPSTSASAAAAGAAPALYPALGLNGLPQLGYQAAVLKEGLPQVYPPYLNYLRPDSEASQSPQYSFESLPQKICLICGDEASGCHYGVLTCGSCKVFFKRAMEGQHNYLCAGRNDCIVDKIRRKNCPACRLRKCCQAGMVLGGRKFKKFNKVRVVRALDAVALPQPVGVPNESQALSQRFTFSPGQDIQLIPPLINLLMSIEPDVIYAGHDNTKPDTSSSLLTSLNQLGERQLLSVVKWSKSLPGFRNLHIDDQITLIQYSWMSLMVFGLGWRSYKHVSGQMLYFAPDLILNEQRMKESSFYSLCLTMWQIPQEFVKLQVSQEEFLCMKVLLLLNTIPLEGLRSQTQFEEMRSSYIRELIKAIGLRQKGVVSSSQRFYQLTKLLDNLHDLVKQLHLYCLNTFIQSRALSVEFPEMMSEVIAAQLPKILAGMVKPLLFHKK

[8] = U2OS cells, 18 h, increasing amounts

C[C@]12CC[C@@H]3c4ccc(O)cc4CC[C@H]3[C@@H]1CC[C@@H]2O [E2, 17β-Estra-1,3,5(10)-triene-3,17-diol, reference compound]
tumor growth of MCF-7 grafts [1]: Large tumors developed; also recorded: causes the formation of large tumors
binding affinity to ERβ compared to ERα (ERα and ERβ): equal affinity

C=Cc1cc(O)cc2nc(-c3ccc(O)c(F)c3)oc12 [ERβ-041]
proliferative effects on mammary and uterine tissue [2]: does not elicit any proliferative effects

O=c1c(-c2ccc(O)cc2)coc2cc(O)cc(O)c12 [genistein]
binding affinity to ERβ compared to ERα (ERα and ERβ): higher affinity; also recorded: binds better to ERβ than ERα

O=C1C[C@@H](c2ccc(O)cc2)Oc2cc(O)ccc21 [liquiritigenin, (2S)-7-hydroxy-2-(4-hydroxyphenyl)-2,3-dihydro-4H-1-benzopyran-4-one]
weight of the tumors compared to the control mice ([1]; osmotic pump, 2 mg): no differences in the weight of the tumors
tumor growth of MCF-7 grafts [1]: essentially no tumor growth; also recorded: does not stimulate breast cancer tumor formation
uterine horn mass (uterus): did not increase uterine horn mass
uterine horn mass (uterus; listed as liquirtigenin): does not increase the size of the uterus
activation of endogenous genes in U2OS-ERα cells (ERα [3]): does not activate
activation of multiple ER regulatory elements (ERα [4]; 1 μM, ERα): does not activate
activation of CECR6-tk-Luc with ERα (ERα [4]; [8]): not with ERα
activation of NKD-tk-Luc with ERα (ERα [4]; [8]): not with ERα
activation of androgen receptor (luciferase) (androgen receptor (AR)): did not activate
activation of thyroid hormone receptor (luciferase) [5]: did not activate
activation of glucocorticoid receptor (luciferase) [6]: did not activate
activation of progesterone receptor B (luciferase) [7]: did not activate
